Reference: patent EP3900722A1, “COMBINATION OF FINERENONE AND PECAVAPTAN FOR THE TREATMENT AND/OR PREVENTION OF CARDIOVASCULAR AND/OR RENAL DISEASES” (Bayer AG, priority 2020, dated 2021)

Test system: awake Wistar rats with activated renin-angiotensin-aldosterone system
Experiment: In vivo assay for detecting natriuretic activity in conscious rats with activated RAAS
Parameters: Volume urine / body weight: unit not given here
Conditions: 8 hours after oral administration, metabolic cages, 3 mg/kg Finerenone, 0.3 mg/kg Pecavaptan, or both combined, mean ± SD, n = 7-8; for Urinary Na+/K+ concentration ratio: calculated from urinary sodium and potassium concentrations
Description: Wistar rats (ca. 250-500 g body weight) were kept with free access to feed (Altromin) and drinking water. […] This sodium-reduced feed causes an activation of the RAAS in the animals during the 3 days run-in phase and therefore mimics a neuroendocrine activation which is characteristic for cardiorenal diseases. During the test, the animals were housed singly in metabolic cages suitable for rats of this weight class (Tecniplast Deutschland GmbH, D-82383 Hohenpeissenberg) with free access to reduced-salt feed and drinking water for up to 24 hours. At the start of the test, the substance to be tested was administered by means of gavage in a volume of 2-3 ml/kg of body weight of a suitable solvent ('Adalat Placebo': 85.8% PEG400, 5.3% glycerol, 8.9% water). Control animals received only solvent ('Adalat Placebo' or solvent in table 2 below). Controls and substance tests were carried out in parallel on the same day. Control groups and substance-dose groups each consisted of 7 to 8 animals. During the test, the urine excreted by the animals was continuously collected in a receiver on the base of the cage. The urine volume per collection time was determined separately for each animal, and the concentration of the sodium and potassium ions excreted in the urine was measured by standard methods of flame photometry by a clinical-chemical analyzer system (ADVIA 2400, Siemens). The sodium/potassium ratio was calculated on the basis of the individual urinary sodium and potassium concentrations. The measurement intervals were typically the period up to 8 hours after the start of the test (day interval) or up to 24 hours after the start of the test (day and night interval).
In this comparison, four different administrations were performed: Group A received the solvent (Adalat Placebo) only. This group serves as control group. Group B received finerenone only. It serves to detect the effect of the monotherapy with finerenone. Group C received pecavaptan only. It serves to detect the effect of the monotherapy with pecavaptan. Group D received finerenone and pecavaptan in combination. It serves to detect the effect of the combined therapy with finerenone and pecavaptan (combination according to the invention). After the treatment, the urinary volume, urinary sodium and potassium concentrations were measured. Based on this measurement the sodium/potassium ratio was calculated. Table 2: Measured data (mean values ± standard deviation [SD]) of urinary volume, urinary potassium concentration (K+), urinary sodium concentration (Na+), and the resulting urinary sodium / potassium concentration ratio from awake Wistar rats with activated renin-angiotensin-aldosterone system (n = 7-8 animals per group), which were examined according to the 'assessment of the physiological efficacy' for 8 hours after oral administration of the substances in metabolic cages.

| Compound | Urinary K+ concentration | Urinary Na+ concentration | Volume urine / body weight | Urinary Na+/K+ concentration ratio | Urinary Na+/K+ concentration ratio (listed as pecavaptan) | Urinary K+ concentration (listed as pecavaptan) | Urinary Na+ concentration (listed as pecavaptan) | Volume urine / body weight (listed as pecavaptan) | Urinary Na+/K+ concentration ratio (listed as finerenone) | Urinary K+ concentration (listed as finerenone) | Urinary Na+ concentration (listed as finerenone) | Volume urine / body weight (listed as finerenone) |
| --- | --- | --- | --- | --- | --- | --- | --- | --- | --- | --- | --- | --- |
| C[C@H](O)c1nc(Cn2nc(-c3ccc(Cl)cc3)n(C[C@H](O)C(F)(F)F)c2=O)nn1-c1cccc(Cl)c1 [Pecavaptan, 5-(4-chlorophenyl)-2-({1-(3-chlorophenyl)-5-[(1S)-1-hydroxyethyl]-1H-1,2,4-triazol-3-yl}methyl)-4-[(2S)-3,3,3-trifluoro-2-hydroxypropyl]-2,4-dihydro-3H-1,2,4-triazol-3-one] | 1.35 ± 0.08 mmol | 0.72 ± 0.11 mmol | 80.070 ±9.661 | 0.534 ±0.074 | increased | increases | increases | increases |  |  |  |  |
| CCOc1ncc(C)c2c1[C@H](c1ccc(C#N)cc1OC)C(C(N)=O)=C(C)N2 [Finerenone, (S)-4-(4-cyano-2-methoxyphenyl)-5-ethoxy-2,8-dimethyl-1,4-dihydro-1,6-naphthyridin-3-carboxamide] | 0.84 ± 0.04 mmol | 0.24 ± 0.03 mmol | 12.069 ±0.563 | 0.283 ±0.031 |  |  |  |  | increase | no influence | increase | no influence |
